Experimental data from patent US10485256B2, “Stevia sweetener with improved solubility with a cyclodextrin” (EPC Natural Products Co., Ltd., priority 2014, dated 2019).

Assays:
[1] = Stability test: period that the system remains in solution form, without precipitation; format: physicochemical; conditions: 25° C.; for stability (period the system remain a solution form, without precipitation): Concentration 1 weight %
Experimental: Concentration of RA was weight (g) in 100 g of water.
The stability test was performed at ambient temperature (25° C.), and was in water.
The acidic aqueous conditions were formulated with citric acid and water, and the pH was 3.0.
Concentration of RA+RD was weight (g) in 100 g of water.
The stability test was performed at ambient temperature (25° C.) and was in water.
Concentration of RA+RB+RD was weight (g) in 100 g of water.
Concentration of RB or RD was weight (g) in 100 g of water.

[2] = Dissolution property at room temperature; format: physicochemical; conditions: concentration 1%; without a solublizer (no cyclodextrin); water
[3] = γ-cyclodextrin mole ratio 1, water

stability (period the system remain a solution form, without precipitation) [1, 3] | formation of a solution [2] | stability (period the system remains in solution form, without precipitation) ([1]; acidic (citric acid, pH 3.0), RA 3.5 weight %, γ-cyclodextrin mole ratio 1) | stability (period the system remains in solution form, without precipitation) ([1]; neutral, RA 3 weight %, γ-cyclodextrin mole ratio 0.5, water) | stability (period the system remains in solution form, without precipitation) ([1]; neutral, RA 3 weight %, γ-cyclodextrin mole ratio 0.6, water) | stability (period the system remains in solution form, without precipitation) ([1]; neutral, RA 3 weight %, γ-cyclodextrin mole ratio 0.7, water) | stability (period the system remains in solution form, without precipitation) ([1]; neutral, RA 3 weight %, γ-cyclodextrin mole ratio 0.8, water) | stability (period the system remains in solution form, without precipitation) ([1]; neutral, RA 3 weight %, γ-cyclodextrin mole ratio 0.85, water) | stability (period the system remains in solution form, without precipitation) ([1]; neutral, RA 3.5 weight %, γ-cyclodextrin mole ratio 0, water) | stability (period the system remains in solution form, without precipitation) ([1]; neutral, RA 3.5 weight %, γ-cyclodextrin mole ratio 0.85, water) | stability (period the system remains in solution form, without precipitation) ([1]; neutral, RA 3.5 weight %, γ-cyclodextrin mole ratio 1, water) | Molecule
20 min | did not form a solution |  |  |  |  |  |  |  |  |  | Rebaudioside B [RB]
 |  | 120 h | 1 h | 2 h | 24 h | 52 h | 92 h | 2 h | 160 h | 336 h | C=C1C[C@@]23CC[C@H]4[C@@](C)(CCC[C@@]4(C)C(=O)O[C@@H]4O[C@H](CO)[C@@H](O)[C@H](O)[C@H]4O)[C@@H]2CC[C@]1(O[C@@H]1O[C@H](CO)[C@@H](O)[C@H](O[C@@H]2O[C@H](CO)[C@@H](O)[C@H](O)[C@H]2O)[C@H]1O[C@@H]1O[C@H](CO)[C@@H](O)[C@H](O)[C@H]1O)C3 [RA, Rebaudioside A]
2880 min | did not form a solution |  |  |  |  |  |  |  |  |  | C=C1C[C@@]23CC[C@H]4[C@@](C)(CCC[C@@]4(C)C(=O)O[C@@H]4O[C@H](CO)[C@@H](O)[C@H](O)[C@H]4O[C@@H]4O[C@H](CO)[C@@H](O)[C@H](O)[C@H]4O)[C@@H]2CC[C@]1(O[C@@H]1O[C@H](CO)[C@@H](O)[C@H](O[C@@H]2O[C@H](CO)[C@@H](O)[C@H](O)[C@H]2O)[C@H]1O[C@@H]1O[C@H](CO)[C@@H](O)[C@H](O)[C@H]1O)C3 [RD, Rebaudioside D]
